Converted amounts (≈) assume the structure as drawn. Like-named read-outs stand apart in the source and are kept apart here.
Tests used:
M. smegmatis ATCC 19420 = experiment: MIC broth microdilution (NCCLS), fastidious bacteria; format: cell-based, Mycobacterium smegmatis; details: Mycolicibacterium smegmatis, ATCC19420, read after 48 hours
A. baumannii ATCC 19606 = experiment: MIC broth microdilution (NCCLS); format: cell-based, Acinetobacter baumannii; details: Acinetobacter baumannii, ATCC19606, read-out: MIC
How it was run: (§1)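 Susceptibility by NCCLS microdilution: checked inoculum 10^5-10^6 CFU/ml, 24 h at 35° C, and growth assessed at 650 nm and by eye. Haemophilus was tested in HTM medium and Listeria with laked horse blood, each incubated under 5% CO2.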

[1] = test system: S. saprophyticus ATCC 15305; experiment: Minimal Bactericidal Concentration (MBC); format: cell-based; details: Staphylococcus saprophyticus, ATCC15305; S. saprophyticus ATCC 15305; 99.9% killing; read-out: MBC
How it was run: (§2)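 After MIC reading, samples from each clear microtiter well (at least 5 wells without visible growth) were plated on TSA for viable counts. Plates were incubated at 35° C. for exactly 24 h and colonies counted.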

E. coli ATCC 25922 [2] = experiment: Minimal Bactericidal Concentration (MBC); format: cell-based; details: Escherichia coli, ATCC25922, 99.9% killing
How it was run: as §2

E. faecium ATCC 35667 = experiment: Minimal Bactericidal Concentration (MBC); format: cell-based; details: Enterococcus faecium, ATCC35667, 99.9% killing
How it was run: as §2

S. aureus MRSA COL [3] = experiment: Minimal Bactericidal Concentration (MBC); format: cell-based; details: Staphylococcus aureus, 99.9% killing
How it was run: as §2

H. influenzae ATCC 49247 = experiment: Minimal Bactericidal Concentration (MBC); format: cell-based; details: Haemophilus influenzae, ATCC49247, 99.9% killing
How it was run: as §2

E. faecalis ATCC 29212 = experiment: Minimal Bactericidal Concentration (MBC); format: cell-based; details: Enterococcus faecalis, ATCC29212, 99.9% killing
How it was run: as §2

S. aureus ATCC 29213 [4] = experiment: Minimal Bactericidal Concentration (MBC); format: cell-based; details: Staphylococcus aureus, ATCC29213, 99.9% killing
How it was run: as §2

[5] = test system: S. epidermidis ATCC 12228; experiment: Minimal Bactericidal Concentration (MBC); format: cell-based; details: Staphylococcus epidermidis, ATCC12228, 99.9% killing
How it was run: as §2

H. influenzae ATCC 49766 = experiment: Minimal Bactericidal Concentration (MBC); format: cell-based; details: Haemophilus influenzae, ATCC49766, 99.9% killing
How it was run: as §2

[6] = test system: Y. enterocolytica ATCC 23715; experiment: MIC broth microdilution (NCCLS); format: cell-based, Yersinia enterocolytica; details: Yersinia, ATCC23715, read-out: MIC
How it was run: as §1

B. fragilis ATCC 25285 = experiment: MIC broth microdilution (NCCLS), anaerobic; format: cell-based; details: Bacteroides fragilis, ATCC25285; B. fragilis ATCC 25285; Wilkins Chalgren broth, anaerobic, 48 hours; read-out: MIC
Protocol: Minimal Inhibitory Concentration (MIC) Determination. Bacteria (primary strain panel, TABLE 1). Susceptibility tests were performed following the recommendations from the National Committee for Clinical Standards (NCCLS). The MICs were determined by a broth microdilution technique using a final volume of 100 μl of cation-adjusted Mueller Hinton Broth (MHBCA) and a bacterial inoculum of 10^5-10^6 Colony Forming Units (CFU)/ml. The inocula were verified and precisely determined by applying 10-μl drops of 10-fold dilutions onto Triptic Soy Agar plates. The CFU were counted after an incubation of 24 h at 35° C. Any experiment showing an inoculum that was more or less than 10^5-10^6 CFU/ml was rejected. Control antibiotics and test compounds were prepared at a concentration equivalent to 2-fold the highest desired final concentration. Compounds were then diluted directly in the 96-well microtiter plates by serial 2-fold dilutions using a multichannel pipette. Microtiter plates were incubated during 24 h at 35° C. and growth was recorded by using a microtiterplate reader at 650 nm as well as by visual observation. The MIC was defined as the lowest concentration of compound yielding no visible growth. […] Fastidious bacteria. The medium used for Listeria monocytogenes, Neisseria meningitidis, and Campylobacter jejuni was MHBCA containing 2% laked horse blood. The medium used for Haemophilus influenzae and Branhamella (Moraxella) catarrhalis was HTM as recommended by the NCCLS. Cultures of these fastidious bacteria were incubated at 35° C. in a 5% CO2 atmosphere. […] The medium used for Bacteroides fragilis was Wilkins Chalgren broth and growth was allowed under an anaerobic atmosphere at 35° C. for 48 hours.

S. aureus MRSA COL [7] = experiment: MIC broth microdilution (NCCLS); format: cell-based, Staphylococcus aureus; details: S. aureus MRSA COL
How it was run: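 Inocula of 10^5-10^6 CFU/ml were checked by colony counts, and out-of-range runs were rejected. Test compounds underwent serial 2-fold dilution in cation-adjusted Mueller Hinton broth and were incubated for 24 h at 35° C. The MIC was the lowest concentration without visible growth.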

[8] = test system: B. cereus, B. subtilis and B. atrophaeus; experiment: MIC broth microdilution, Bacillus species; format: cell-based; details: three Bacillus species (B. cereus, B. subtilis and B. atrophaeus); data not shown
Protocol: Minimal Inhibitory Concentration (MIC) Determination. Bacteria (primary strain panel, TABLE 1). Susceptibility tests were performed following the recommendations from the National Committee for Clinical Standards (NCCLS). The MICs were determined by a broth microdilution technique using a final volume of 100 μl of cation-adjusted Mueller Hinton Broth (MHBCA) and a bacterial inoculum of 10^5-10^6 Colony Forming Units (CFU)/ml. The inocula were verified and precisely determined by applying 10-μl drops of 10-fold dilutions onto Triptic Soy Agar plates. The CFU were counted after an incubation of 24 h at 35° C. Any experiment showing an inoculum that was more or less than 10^5-10^6 CFU/ml was rejected. Control antibiotics and test compounds were prepared at a concentration equivalent to 2-fold the highest desired final concentration. Compounds were then diluted directly in the 96-well microtiter plates by serial 2-fold dilutions using a multichannel pipette. Microtiter plates were incubated during 24 h at 35° C. and growth was recorded by using a microtiterplate reader at 650 nm as well as by visual observation. The MIC was defined as the lowest concentration of compound yielding no visible growth. […] Fastidious bacteria. The medium used for Listeria monocytogenes, Neisseria meningitidis, and Campylobacter jejuni was MHBCA containing 2% laked horse blood. […]

E. coli ATCC 25922 [9] = experiment: MIC broth microdilution (NCCLS); format: cell-based, Escherichia coli
S. aureus ATCC 29213 [10] = experiment: MIC broth microdilution (NCCLS); format: cell-based, Staphylococcus aureus; details: Staphylococcus aureus, ATCC29213; S. aureus ATCC 29213; read-out: MIC
[11] = Staphylococcus aureus, MRSA, read-out: MIC
[12] = Escherichia coli, ATCC25922, E. coli ATCC 25922 (Reference), read-out: MIC

O=[N+]([O-])c1ccc(C=Cc2nc(Nc3ccc(O)cc3)c3cc(F)ccc3n2)o1 [Compound V, 6-fluoro-2-[2-(5-nitro-2-furyl)vinyl]-4-(p-hydroxyanilino)-quinazoline]
MIC (M. smegmatis ATCC 19420): 0.06 µg/mL (≈ 0.153 µM)
MIC (A. baumannii ATCC 19606): 1 to 2 µg/mL (≈ 2.55 to 5.1 µM)
MBC [1]: 0.03 to 0.06 µg/mL (≈ 0.0765 to 0.153 µM)
MBC (E. coli ATCC 25922 [2]): 0.5 µg/mL (≈ 1.27 µM)
MBC (E. faecium ATCC 35667): 0.25 µg/mL (≈ 0.637 µM)
MBC (S. aureus MRSA COL [3]): 0.06 µg/mL (≈ 0.153 µM)
MBC (H. influenzae ATCC 49247): 0.06 µg/mL (≈ 0.153 µM)
MBC (E. faecalis ATCC 29212): 0.03 µg/mL (≈ 0.0765 µM)
MBC (S. aureus ATCC 29213 [4]): 0.06 µg/mL (≈ 0.153 µM)
MBC [5]: 0.03 µg/mL (≈ 0.0765 µM)
MBC (H. influenzae ATCC 49766): 0.06 µg/mL (≈ 0.153 µM)
MIC [6]: 0.25 µg/mL (≈ 0.637 µM)
MIC (B. fragilis ATCC 25285): 0.016 µg/mL (≈ 0.0408 µM)
MIC (S. aureus MRSA COL [7]; [11]): 0.015 µg/mL (≈ 0.0382 µM)
MIC [8]: 0.03 to 0.125 µg/mL (≈ 0.0765 to 0.319 µM)
MIC (E. coli ATCC 25922 [9]; E. coli ATCC 25922 (Reference), listed as Example I compound V): 0.5 µg/mL (≈ 1.27 µM)
MIC (E. coli ATCC 25922 [9]; [12]): 0.5 µg/mL (≈ 1.27 µM)
MIC (S. aureus ATCC 29213 [10]): 0.03 to 0.06 µg/mL (≈ 0.0765 to 0.153 µM)

O=C1CN(/N=C/c2ccc([N+](=O)[O-])o2)C(=O)N1 [Nitrofurantoin]
MIC (M. smegmatis ATCC 19420): 64 µg/mL (≈ 269 µM)
MIC (A. baumannii ATCC 19606): 128 µg/mL (≈ 537 µM)
MIC [6]: 64 µg/mL (≈ 269 µM)
MIC (S. aureus MRSA COL [7]): 8 to 16 µg/mL
MIC (S. aureus MRSA COL [7]; [11]): 16 µg/mL (≈ 67.2 µM)
MIC (E. coli ATCC 25922 [9]; E. coli ATCC 25922 (Reference)): 8 to 16 µg/mL
MIC (E. coli ATCC 25922 [9]; [12]): 8 µg/mL (≈ 33.6 µM)
MIC (S. aureus ATCC 29213 [10]): 16 µg/mL (≈ 67.2 µM)
